In patent US20230172204A1 (BASF SE, priority 2020, published 2023):

Experiments:
[1] = tested on: Phakopsora pachyrhizi (F129L); test: Protective control of soybean rust on soybeans (PHAKPA P2); type: in vivo; conditions: for % PHAKPA (F129L) Disease level P2 at 4 ppm: protective P2, 4 ppm; for % PHAKPA (F129L) Disease level P2 at 4 ppm / % PHAKPA (F129L) Disease level P2 at 16 ppm: soybean rust F129L; for % PHAKPA (F129L) Disease level P2 at 16 ppm: protective P2, 16 ppm
[2] = tested on: Phakopsora pachyrhizi (F129L); test: Protective control of soybean rust on soybeans (PHAKPA P6); type: in vivo; conditions: for % PHAKPA (F129L) Disease level P6 at 4 ppm: protective P6, 4 ppm; for % PHAKPA (F129L) Disease level P6 at 4 ppm / % PHAKPA (F129L) Disease level P6 at 16 ppm: soybean rust F129L; for % PHAKPA (F129L) Disease level P6 at 16 ppm: protective P6, 16 ppm

CNC(=O)/C(=N/OC)c1cccc(C)c1CO/N=C(\C)c1ccc(F)c(C(F)(F)F)c1 [compound 47]
% PHAKPA (F129L) Disease level P2 at 4 ppm [1]: 13% | % PHAKPA (F129L) Disease level P2 at 16 ppm [1]: 0% | % PHAKPA (F129L) Disease level P6 at 4 ppm [2]: 12% | % PHAKPA (F129L) Disease level P6 at 16 ppm [2]: 0%

CO/N=C(/C(=O)OC)c1cccc(C)c1CO/N=C(\C)c1c(F)cccc1C(F)(F)F [compound 365]
% PHAKPA (F129L) Disease level P2 at 4 ppm [1]: 77% | % PHAKPA (F129L) Disease level P2 at 16 ppm [1]: 15% | % PHAKPA (F129L) Disease level P6 at 4 ppm [2]: 97% | % PHAKPA (F129L) Disease level P6 at 16 ppm [2]: 43%

CNC(=O)/C(=N/OC)c1cccc(C)c1CO/N=C(\C)c1cccc(Cl)c1C(F)(F)F [compound 422]
% PHAKPA (F129L) Disease level P2 at 4 ppm [1]: 30% | % PHAKPA (F129L) Disease level P2 at 16 ppm [1]: 0% | % PHAKPA (F129L) Disease level P6 at 4 ppm [2]: 32% | % PHAKPA (F129L) Disease level P6 at 16 ppm [2]: 2%

C#Cc1ccc(/C(C)=N/OCc2c(C)cccc2/C(=N\OC)C(=O)NC)cc1 [compound 196]
% PHAKPA (F129L) Disease level P2 at 4 ppm [1]: 1% | % PHAKPA (F129L) Disease level P2 at 16 ppm [1]: 0% | % PHAKPA (F129L) Disease level P6 at 4 ppm [2]: 11% | % PHAKPA (F129L) Disease level P6 at 16 ppm [2]: 5%

CNC(=O)/C(=N/OC)c1cccc(C)c1CO/N=C(\C)c1cccc(-c2noc(C(F)(F)F)n2)c1 [Ex. 205]
PHAKPA (F129L) Disease level (%) P2 at 16 ppm ([1]; P2 protective, 16 ppm, % diseased leaf area): 1% | PHAKPA (F129L) Disease level (%) P6 at 16 ppm ([2]; P6 protective, 16 ppm, % diseased leaf area): 1%

CNC(=O)/C(=N/OC)c1cccc(C)c1CO/N=C(\C)c1ccc(F)cc1CC(F)(F)F [compound 394]
% PHAKPA (F129L) Disease level P2 at 4 ppm [1]: 9% | % PHAKPA (F129L) Disease level P2 at 16 ppm [1]: 3% | % PHAKPA (F129L) Disease level P6 at 4 ppm [2]: 12% | % PHAKPA (F129L) Disease level P6 at 16 ppm [2]: 2%

CO/N=C(/C(=O)OC)c1cccc(C)c1CO/N=C(\C)c1ccc(-c2ccccc2)cc1C(F)(F)F [compound 414]
% PHAKPA (F129L) Disease level P2 at 4 ppm [1]: 53% | % PHAKPA (F129L) Disease level P2 at 16 ppm [1]: 9% | % PHAKPA (F129L) Disease level P6 at 4 ppm [2]: 53% | % PHAKPA (F129L) Disease level P6 at 16 ppm [2]: 15%

CNC(=O)/C(=N/OC)c1cccc(C)c1CO/N=C(\C)c1cccc(C#CC(F)(F)F)c1 [compound 57]
% PHAKPA (F129L) Disease level P2 at 4 ppm [1]: 25% | % PHAKPA (F129L) Disease level P2 at 16 ppm [1]: 8% | % PHAKPA (F129L) Disease level P6 at 4 ppm [2]: 43% | % PHAKPA (F129L) Disease level P6 at 16 ppm [2]: 15%

CO/N=C(/C(=O)OC)c1cccc(C)c1CO/N=C(\C)c1ccccc1-c1ccccc1 [compound 121]
% PHAKPA (F129L) Disease level P2 at 4 ppm [1]: 100% | % PHAKPA (F129L) Disease level P2 at 16 ppm [1]: 98% | % PHAKPA (F129L) Disease level P6 at 4 ppm [2]: 98% | % PHAKPA (F129L) Disease level P6 at 16 ppm [2]: 92%

CO/N=C(/C(=O)OC)c1cccc(C)c1CO/N=C(\C)c1cccc(OC)c1 [compound 78]
% PHAKPA (F129L) Disease level P2 at 4 ppm [1]: 40% | % PHAKPA (F129L) Disease level P2 at 16 ppm [1]: 1% | % PHAKPA (F129L) Disease level P6 at 4 ppm [2]: 30% | % PHAKPA (F129L) Disease level P6 at 16 ppm [2]: 1%

CO/C=C(/C(=O)OC)c1cccc(C)c1CO/N=C(\C)c1ccccc1CC(F)(F)F [compound 437]
% PHAKPA (F129L) Disease level P2 at 4 ppm [1]: 2% | % PHAKPA (F129L) Disease level P2 at 16 ppm [1]: 0% | % PHAKPA (F129L) Disease level P6 at 4 ppm [2]: 8% | % PHAKPA (F129L) Disease level P6 at 16 ppm [2]: 0%

CNC(=O)/C(=N/OC)c1cccc(C)c1CO/N=C(\C)c1cc(C(F)(F)F)ccc1C1CC1 [compound 185]
% PHAKPA (F129L) Disease level P2 at 4 ppm [1]: 100% | % PHAKPA (F129L) Disease level P2 at 16 ppm [1]: 67% | % PHAKPA (F129L) Disease level P6 at 4 ppm [2]: 90% | % PHAKPA (F129L) Disease level P6 at 16 ppm [2]: 77%

CC/C(=N\OCc1c(C)cccc1/C(=N\OC)C(=O)NC)c1ccccc1 [compound 294]
% PHAKPA (F129L) Disease level P2 at 4 ppm [1]: 1% | % PHAKPA (F129L) Disease level P2 at 16 ppm [1]: 1% | % PHAKPA (F129L) Disease level P6 at 4 ppm [2]: 2% | % PHAKPA (F129L) Disease level P6 at 16 ppm [2]: 0%

CO/N=C(/C(=O)OC)c1cccc(C)c1CO/N=C(\C)c1cccc(C2CC2(Cl)Cl)c1 (stereo not drawn) [compound 74]
% PHAKPA (F129L) Disease level P2 at 4 ppm [1]: 27% | % PHAKPA (F129L) Disease level P2 at 16 ppm [1]: 6% | % PHAKPA (F129L) Disease level P6 at 4 ppm [2]: 16% | % PHAKPA (F129L) Disease level P6 at 16 ppm [2]: 3%
